{
  "source": "patent US6031093A",
  "about": "“Solid salts of clavulanic acid” (SmithKline Beecham p.l.c., priority 1995, dated 2000)",
  "key": {"[1]": {"tested_on": "Klebsiella aerogenes E 70", "assay": "Antibacterial synergism, microtitre method (MIC)", "type": "cell-based"}, "[2]": {"tested_on": "Staphylococcus", "assay": "Antibacterial synergism, microtitre method (MIC)", "type": "cell-based"}, "[3]": {"tested_on": "Klebsiella aerogenes 62", "assay": "Antibacterial synergism, microtitre method (MIC)", "type": "cell-based"}, "[4]": {"tested_on": "Klebsiella aerogenes A", "assay": "Antibacterial synergism, microtitre method (MIC)", "type": "cell-based"}, "[5]": {"tested_on": "Klebsiella acrogenes A", "assay": "Growth inhibition and synergism", "type": "cell-based, Klebsiella aerogenes", "details": "5 μg/ml. of clavulanic acid also present"}, "[6]": {"tested_on": "Staphylococcus aureus (Russell)", "assay": "Synergism of clavulanic acid methyl ester (M.I.C.)", "type": "cell-based", "details": "in the presence of 1.0 μg/ml. clavulanic acid methyl ester"}, "[7]": {"assay": "Hydrolysis of ester to clavulanic acid in pH 7 buffer", "type": "physicochemical", "details": "buffered to pH 7 (0.05M phosphate, 37° C., 1 mg/ml, 2 hours in Example 29)", "protocol": "The reaction was followed by paper chromatography (bioautographic system). Using the butanol/ethanol/water system to follow the reaction over a period of 2 hours the zone of the methyl ester at Rf 0.79 decreased in size as the zone of clavulanic acid at Rf 0.12 increased."}, "[8]": {"tested_on": "Enterobacter cleacea", "assay": "Antibacterial spectrum, microtitre method (MIC)", "type": "cell-based", "details": "read-out: Minimum Inhibitory Concentration"}, "[9]": {"tested_on": "Staphylococcus aureus (Russell)", "assay": "Antibacterial synergism, microtitre method (MIC)", "type": "cell-based", "details": "Table 6"}, "[10]": {"tested_on": "Enterohacter cloacae", "assay": "Antibacterial synergism, microtitre method (MIC)", "type": "cell-based", "details": "read-out: Minimum Inhibitory Concentration, agent alone"}, "[11]": {"assay": "Stability in human blood", "type": "in vitro ADME"}, "[12]": {"target": "T1, β-lactamase produced by Escherichia coli JT4 (Escherichia coli, UniProt P62593)", "T1 construct": "the cell debris was removed by centrifugation and aliquots of the supernatant stored deep frozen; endogenous in cells; host or cells: Escherichia coli JT4 (R factor), ultrasonic extract", "T1 sequence (P62593 24-286 limits assumed)": "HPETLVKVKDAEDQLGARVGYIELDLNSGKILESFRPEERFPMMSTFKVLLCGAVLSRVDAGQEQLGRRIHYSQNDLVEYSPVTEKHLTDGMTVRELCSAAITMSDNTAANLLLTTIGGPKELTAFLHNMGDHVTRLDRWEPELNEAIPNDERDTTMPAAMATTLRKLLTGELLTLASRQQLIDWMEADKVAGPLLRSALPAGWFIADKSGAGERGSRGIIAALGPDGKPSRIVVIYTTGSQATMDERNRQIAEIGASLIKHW", "assay": "β-lactamase inhibition assay (Description 1)", "type": "biochemical", "procedure": "Solutions containing clavulanic acid (culture filtrate, samples from isolation procedure and the like) are incubated for 15 minutes with a β-lactamase preparation in 0.05M phosphate buffer at pH 7 and 37° C. During this time, enzyme inhibition or inactivation occurs. Substrate (benzylpenicillin) is then added and incubation continued for 30 minutes at 37° C. The amount of enzymic degradation of the substrate to penicilloic acid is determined by the hydroxylamine assay for penicillin. The amount of β-lactamase used is such as to give 75% hydrolysis of the benzylpenicillin in 30 minutes at 37° C.\nThe extent of hydrolysis is a reflection of the amount of enzyme remaining uninhibited.\nThe β-lactamase produced by Escherichia coli JT4 is used as an enzyme.\nThe culture maintained on nutrient agar slopes, is inoculated into 400 ml. of sterile Tryptone medium contained in a 2 liter conical flask. This medium has the following composition Tryptone (Oxoid) 32 g/l, yeast extract (Oxoid) 20 g/l, Nacl 5 g/l and Cacl2 6H2 O 2.2 g/l. […]\nSuitable dilutions of the inhibitor preparation and β-lactamase solution are mixed and incubated at 37° C. for 15 minutes (Test). […] The absorption of the final solutions is measured in an E.E.L. Colorimeter or a Spectrophotometer at 490 nm against the reagent blank.\nThe percentage inhibition of the β-lactamase is calculated as follows- - […]"}, "[13]": {"details": "+5 μg/ml benzyl ester of clavulanic acid"}, "[14]": {"details": "+5 μg/ml methyl ester of clavulanic acid"}},
  "note": "“Also recorded” adds a separate entry of the source. Counter-ions that a name gives are not always drawn. Like-named read-outs stand apart in the source and are kept apart here.",
  "data": [
    {"smiles": "CC1(C)S[C@@H]2[C@H](NC(=O)[C@H](N)c3ccccc3)C(=O)N2[C@H]1C(=O)O", "note": "[ampicillin]", "values": [
      {"measurement": "MIC of Ampicillin + 5 μg/ml of Benzyl Ester of clavulanic acid", "setting": "[1]; [13]", "result": 3.9, "unit": "µg/mL"},
      {"measurement": "MIC of Ampicillin + 5 μg/ml of Methyl Ester of clavulanic acid", "setting": "[1]; [14]", "result": 3.9, "unit": "µg/mL"},
      {"measurement": "MIC", "setting": "[2]; alone, inoculum 0.5×10^-2, read-out: Minimum Inhibitory Concentration, agent alone", "result": 250, "unit": "µg/mL"},
      {"measurement": "MIC of Ampicillin + 5 μg/ml of Benzyl Ester of clavulanic acid", "setting": "[3]; [13]", "result": 3.9, "unit": "µg/mL"},
      {"measurement": "MIC of Ampicillin + 5 μg/ml of Methyl Ester of clavulanic acid", "setting": "[3]; [14]", "result": 3.9, "unit": "µg/mL"},
      {"measurement": "MIC of Ampicillin + 5 μg/ml of Benzyl Ester of clavulanic acid", "setting": "[4]; [13]", "result": 1.9, "unit": "µg/mL"},
      {"measurement": "MIC of Ampicillin + 5 μg/ml of Methyl Ester of clavulanic acid", "setting": "[4]; [14]", "result": 1.9, "unit": "µg/mL"}
    ]},
    {"smiles": "CC1(C)S[C@@H]2[C@H](NC(=O)Cc3ccccc3)C(=O)N2[C@H]1C(=O)O", "note": "[benzylpenicillin]", "values": [
      {"measurement": "concentration of penicillin inhibiting growth", "setting": "[5]", "result": "less than 12.5 μg/ml"}
    ]},
    {"smiles": "CC1(C)S[C@@H]2[C@H](NC(=O)C(C(=O)O)c3ccccc3)C(=O)N2[C@H]1C(=O)O", "note": "(some centres unmarked) [carbenicillin]", "values": [
      {"measurement": "concentration of penicillin inhibiting growth", "setting": "[5]", "result": "less than 12.5 μg/ml"}
    ]},
    {"smiles": "O=C(Cc1cccs1)N[C@@H]1C(=O)N2C(C(=O)[O-])=C(C[n+]3ccccc3)CS[C@H]12", "note": "[cephaloridine]", "values": [
      {"measurement": "M.I.C. of antibiotic in presence of synergist", "setting": "[6]", "result": "< 0.03", "unit": "µg/mL"}
    ]},
    {"smiles": "COC(=O)[C@H]1/C(=C/CO)O[C@@H]2CC(=O)N21", "note": "[clavulanic acid methyl ester]", "values": [
      {"measurement": "hydrolysis of ester to clavulanic acid", "setting": "[7]", "result": "slowly hydrolyse to clavulanic acid; also recorded: Slow conversion of the ester to clavulanic acid"}
    ]},
    {"smiles": "O=C(O)[C@H]1/C(=C/CO)O[C@@H]2CC(=O)N21", "note": "[clavulanic acid sodium salt, 3-(β-hydroxyethylidine)-7-oxo-4-oxa-1-azabicyclo [3,2,0]heptane-2-carboxylic acid sodium salt]", "values": [
      {"measurement": "MIC", "setting": "[8]", "result": 62, "unit": "µg/mL"},
      {"measurement": "Minimum Inhibitory Concentration, agent alone", "setting": "[9]", "result": 15, "unit": "µg/mL"},
      {"measurement": "MIC", "setting": "[10]", "result": 62, "unit": "µg/mL"},
      {"measurement": "MIC", "setting": "[2]; read-out: Minimum Inhibitory Concentration, agent alone", "result": 62, "unit": "µg/mL"}
    ]},
    {"smiles": "O=C(O)[C@H]1/C(=C/CO)O[C@@H]2CC(=O)N21", "note": "[clavulanic acid, Z-(2R,5R)-3-(β-hydroxyethylidene)-7-oxo-4-oxa-1-azabicyclo[3,2,0]heptane-2-carboxylic acid]", "values": [
      {"measurement": "stability in human blood", "setting": "[11]", "result": "high stability"},
      {"measurement": "mode of β-lactamase inhibition", "setting": "[12]", "result": "progressively and irreversibly inhibits"}
    ]}
  ]
}
